Results taken from BindingDB's records for doi:10.1021/acs.jmedchem.8b01200 (Fuji Research Park, R&D Division, 2018).

Assay: Agonist activity at PPARgamma in human MKN45 cells assessed as cell differentiation after 5 days by Hoechst 33342 staining-based assay

Question: Which EC50 does the source give for `CCCCCS(=O)(=O)NC(=O)c1ccc2nc(C)n(Cc3ccc(Cl)cc3Cl)c2c1` [ATx08-001] here?
Answer: > 500 nM
